In US10100064B2, “Purine inhibitors of human phosphatidylinositol 3-kinase delta” (Merck Sharp & Dohme Corp., priority 2014, dated 2018):

Columns and labels:
[1] = molecular target: T1, PI3Kalpha (Homo sapiens, UniProt P42336); test: HTRF PI3K biochemical assay, alpha isoform (selectivity versus delta); details: relative ratio PI3K-alpha IC50 value / PI3K-delta IC50 value
T1 construct: purchased Upstate; Millipore 14-602
Outline: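 Recombinant PI3Kα (0.5 nM) pre-incubated 15 min with compound, then reacted 1 h at room temperature with 5 μM PIP2 and 100 μM ATP. After EDTA stop, PIP3 measured by HTRF displacement of biotin-PIP3 from GST-GRP1 PH domain (665/620 nm). 10-point dose response; IC50 corrected using a PIP3 standard curve.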

[2] = molecular target: T2, PI3Kdelta (Homo sapiens, UniProt O00329); test: HTRF PI3K biochemical assay, delta isoform; details: 0.3 nM enzyme, 100 uM ATP, 5 uM PIP2, form screened (Neutral or TFA salt) given per compound
T2 construct: purchased Upstate; Millipore 14-604
Outline: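 PI3Kδ at 0.3 nM with 100 uM ATP and 5 uM PIP2, 10-point 3-fold dilutions, 15 min enzyme–compound pre-incubation, then 1 h reaction at room temperature. PIP3 formation detected by HTRF displacement of biotin-PIP3 from GST-GRP1-PH (665/620 nm ratio). IC50 corrected using a PIP3 standard curve.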

T1 sequence (P42336 whole entry, canonical isoform): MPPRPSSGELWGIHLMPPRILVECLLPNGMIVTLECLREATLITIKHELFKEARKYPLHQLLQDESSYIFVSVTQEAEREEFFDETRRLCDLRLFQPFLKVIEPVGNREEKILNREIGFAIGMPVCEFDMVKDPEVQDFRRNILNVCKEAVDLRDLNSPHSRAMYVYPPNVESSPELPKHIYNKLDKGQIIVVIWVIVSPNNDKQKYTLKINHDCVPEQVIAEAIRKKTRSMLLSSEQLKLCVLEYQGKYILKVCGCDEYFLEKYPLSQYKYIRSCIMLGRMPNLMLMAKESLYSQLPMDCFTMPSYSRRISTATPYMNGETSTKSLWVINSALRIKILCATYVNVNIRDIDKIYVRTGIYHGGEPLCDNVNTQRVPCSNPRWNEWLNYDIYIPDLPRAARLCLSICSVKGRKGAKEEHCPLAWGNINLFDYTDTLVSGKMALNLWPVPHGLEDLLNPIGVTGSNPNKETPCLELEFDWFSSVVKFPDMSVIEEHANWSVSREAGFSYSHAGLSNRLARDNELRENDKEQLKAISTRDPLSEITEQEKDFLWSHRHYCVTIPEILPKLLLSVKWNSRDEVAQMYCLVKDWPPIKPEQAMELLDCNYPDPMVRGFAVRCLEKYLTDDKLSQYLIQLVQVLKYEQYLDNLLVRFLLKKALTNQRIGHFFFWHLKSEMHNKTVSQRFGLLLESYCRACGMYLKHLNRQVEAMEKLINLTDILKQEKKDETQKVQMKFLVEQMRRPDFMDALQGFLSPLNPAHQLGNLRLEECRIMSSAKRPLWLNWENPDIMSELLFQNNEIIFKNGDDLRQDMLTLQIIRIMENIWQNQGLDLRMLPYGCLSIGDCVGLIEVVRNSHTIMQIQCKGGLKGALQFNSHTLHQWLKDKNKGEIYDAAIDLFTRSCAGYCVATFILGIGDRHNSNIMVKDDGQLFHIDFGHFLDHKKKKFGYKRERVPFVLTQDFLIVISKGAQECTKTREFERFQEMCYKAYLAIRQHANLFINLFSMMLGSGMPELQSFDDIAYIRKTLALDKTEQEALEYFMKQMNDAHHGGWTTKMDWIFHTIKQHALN
T1 sequence (P27986 whole entry partner, canonical isoform): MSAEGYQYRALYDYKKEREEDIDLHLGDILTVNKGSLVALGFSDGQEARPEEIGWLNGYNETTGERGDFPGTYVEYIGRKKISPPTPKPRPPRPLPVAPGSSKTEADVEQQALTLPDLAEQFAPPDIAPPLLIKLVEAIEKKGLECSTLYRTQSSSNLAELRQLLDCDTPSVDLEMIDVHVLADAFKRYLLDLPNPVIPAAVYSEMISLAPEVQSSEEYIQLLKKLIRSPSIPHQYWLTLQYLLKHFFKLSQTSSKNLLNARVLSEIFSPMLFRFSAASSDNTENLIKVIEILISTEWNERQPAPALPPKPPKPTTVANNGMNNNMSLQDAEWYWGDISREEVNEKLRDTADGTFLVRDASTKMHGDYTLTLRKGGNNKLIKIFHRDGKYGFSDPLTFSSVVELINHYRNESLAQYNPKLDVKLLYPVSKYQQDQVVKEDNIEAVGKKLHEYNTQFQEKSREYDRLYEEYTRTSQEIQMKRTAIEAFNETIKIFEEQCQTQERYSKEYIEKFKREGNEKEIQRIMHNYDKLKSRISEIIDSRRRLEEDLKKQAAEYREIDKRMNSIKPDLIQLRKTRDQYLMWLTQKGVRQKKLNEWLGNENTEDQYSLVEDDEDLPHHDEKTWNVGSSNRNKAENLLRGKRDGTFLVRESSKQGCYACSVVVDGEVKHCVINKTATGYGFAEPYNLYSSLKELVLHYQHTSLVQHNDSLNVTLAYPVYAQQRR
T2 sequence (O00329 whole entry, canonical isoform): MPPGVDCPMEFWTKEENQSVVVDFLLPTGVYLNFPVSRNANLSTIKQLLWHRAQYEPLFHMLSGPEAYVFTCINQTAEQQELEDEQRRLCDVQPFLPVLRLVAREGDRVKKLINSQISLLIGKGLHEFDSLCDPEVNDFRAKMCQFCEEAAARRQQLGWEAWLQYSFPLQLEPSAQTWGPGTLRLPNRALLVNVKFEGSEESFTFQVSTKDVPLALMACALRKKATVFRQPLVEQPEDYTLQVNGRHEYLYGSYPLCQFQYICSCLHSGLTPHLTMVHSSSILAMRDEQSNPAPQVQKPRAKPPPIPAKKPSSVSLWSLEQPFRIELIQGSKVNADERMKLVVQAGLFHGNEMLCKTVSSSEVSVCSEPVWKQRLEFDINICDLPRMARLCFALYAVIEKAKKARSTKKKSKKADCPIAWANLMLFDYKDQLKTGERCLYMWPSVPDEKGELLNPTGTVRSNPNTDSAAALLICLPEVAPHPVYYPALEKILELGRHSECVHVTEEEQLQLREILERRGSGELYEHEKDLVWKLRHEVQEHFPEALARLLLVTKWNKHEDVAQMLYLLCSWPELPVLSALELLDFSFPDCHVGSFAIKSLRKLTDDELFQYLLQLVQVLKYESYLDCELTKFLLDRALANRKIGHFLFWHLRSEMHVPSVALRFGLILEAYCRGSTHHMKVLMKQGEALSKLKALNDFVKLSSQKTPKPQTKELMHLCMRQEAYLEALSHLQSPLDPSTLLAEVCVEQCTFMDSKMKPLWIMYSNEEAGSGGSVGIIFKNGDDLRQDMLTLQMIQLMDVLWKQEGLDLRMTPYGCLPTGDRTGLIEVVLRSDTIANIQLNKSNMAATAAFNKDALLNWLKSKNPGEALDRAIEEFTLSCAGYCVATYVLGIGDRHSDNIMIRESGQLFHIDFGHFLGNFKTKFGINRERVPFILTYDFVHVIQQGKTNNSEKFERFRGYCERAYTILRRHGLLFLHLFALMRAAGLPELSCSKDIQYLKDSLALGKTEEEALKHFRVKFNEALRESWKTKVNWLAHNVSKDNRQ
T2 sequence (P27986 whole entry partner, canonical isoform): as the sequence (P27986 whole entry partner, canonical isoform) above

| Selectivity versus PI3Kalpha [1] | IC50 [2] [µM] | SMILES |
| --- | --- | --- |
| >10 | 0.26 | CCn1c(-c2cnc(C)nc2)nc2c(NC3CCc4ncn(C(C)C)c4C3C)ncnc21 (single isomer, unassigned) [Compound 5-22, 9-ethyl-N-[((6S, 7S) or (6R, 7R))-7-methyl-1-(1-methylethyl)-4,5,6,7-tetrahydro-1H-benzimidazol-6-yl]-8-(2-methylpyrimidin-5-yl)-9H-purin-6-amine] |
| >10 | 0.01 | CCn1c(-c2cnc(C)nc2)nc2c(NC3CCn4cnc(C(C)C)c4C3)ncnc21 (single isomer, unassigned) [Compound 6-1, (S or R)-9-ethyl-N-[1-(1-methylethyl)-5,6,7,8-tetrahydroimidazo[1,5-a]pyridin-7-yl]-8-(2-methylpyrimidin-5-yl)-9H-purin-6-amine] |
| >10 | 0.005 | CCn1c(-c2cnc(C)nc2)nc2c(N[C@H]3Cc4nnc(C5CC5)n4C3)ncnc21 [Compound 1-38, N-[(6S)-3-cyclopropyl-6,7-dihydro-5H-pyrrolo[2,1-c][1,2,4]triazol-6-yl]-9-ethyl-8-(2-methylpyrimidin-5-yl)-9H-purin-6-amine] |
